# Assay results as given in patent publication US9695155B2, “Herbicidal substituted pyrimidinyloxy benzene compounds” (E. I. DU PONT DE NEMOURS AND COMPANY, priority 2013, dated 2017).
# Key:
# [1] = test system: wild oat; assay: Test C postemergence; type: in vivo, Avena fatua; conditions: for Plant response rating (0 to 100), Oat, Wild: postemergence; for Plant response rating, Oat, Wild: Postemergence, scale 0 to 100 (0 no effect, 100 complete control)
# In short: (§1)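 Plants were kept under greenhouse conditions for 13–15 days following spray. Pre-emergent application went to soil (loam–sand), post-emergent to foliage at 1–4 leaves. Evaluation: visual, percent control against untreated checks.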
# [2] = test system: large (Lg) crabgrass; assay: Test C preemergence; type: in vivo, Digitaria sanguinalis; conditions: for Crabgrass, Large plant response rating: preemergence; for Plant response rating, Crabgrass, Large: Preemergence, 31 g ai/ha, scale 0 to 100, 0 no effect, 100 complete control
# In short: as §1
# [3] = test system: corn; assay: Test A preemergence; type: in vivo, Zea mays; conditions: for Plant response rating, Corn: 125 g ai/ha, 0 to 100 scale where 0 is no effect and 100 is complete control; for Corn plant response rating: 500 g ai/ha, 0 to 100 scale, 0 no effect, 100 complete control, approx. 10 days
# In short: (§2)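 Compounds in non-phytotoxic solvent with surfactant applied as soil spray preemergence, or postemergence to plants 2-10 cm at one- to two-leaf stage, in loam/sand. After approximately 10 days in greenhouse, injury rated visually versus untreated controls, 0 (no effect) to 100 (complete control).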
# [4] = test system: blackgrass; assay: Test C preemergence; type: in vivo, Alopecurus myosuroides; conditions: for Blackgrass plant response rating: preemergence; for Plant response rating, Blackgrass: Preemergence, 31 g ai/ha, scale 0 to 100, 0 no effect, 100 complete control
# In short: as §1
# [5] = test system: morningglory; assay: Test A preemergence; type: in vivo, Ipomoea spp.; conditions: for Plant response rating, Morningglory: 125 g ai/ha, 0 to 100 scale where 0 is no effect and 100 is complete control; for Morningglory plant response rating: 500 g ai/ha, 0 to 100 scale, 0 no effect, 100 complete control, approx. 10 days
# In short: as §2
# [6] = test system: morningglory; assay: Test A postemergence; type: in vivo, Ipomoea spp.; conditions: 0 to 100 scale where 0 is no effect and 100 is complete control
# In short: as §2
# [7] = test system: barnyardgrass; assay: Test B flooded paddy test; type: in vivo, Echinochloa crus-galli; conditions: Flood, 250 g ai/ha; 0 to 100 scale where 0 is no effect and 100 is complete control
# In short: (§3)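 Evaluation is visual, against untreated controls, 13 to 15 days after treatment. Before treatment, plants reached the 2-leaf stage; pots were then flooded 3 cm deep, compound was added to the water, and that level was maintained. Ratings run 0 to 100, with 100 meaning complete control.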
# [8] = test system: blackgrass; assay: Test C postemergence; type: in vivo, Alopecurus myosuroides; conditions: for Plant response rating, Blackgrass: Postemergence
# In short: as §1
# [9] = test system: johnsongrass; assay: Test C postemergence; type: in vivo, Sorghum halepense; conditions: for Plant response rating, Johnsongrass: Postemergence
# In short: as §1
# [10] = test system: Heteranthera limosa; assay: Test B flooded paddy test; type: in vivo; conditions: Flood, 250 g ai/ha; 0 to 100 scale where 0 is no effect and 100 is complete control
# In short: as §3
# [11] = test system: large (Lg) crabgrass; assay: Test A postemergence; type: in vivo, Digitaria sanguinalis
# In short: as §2
# [12] = test system: wheat, winter; assay: Test C preemergence; type: in vivo, Triticum aestivum; conditions: for Wheat plant response rating: preemergence; for Plant response rating, Wheat: Preemergence, 31 g ai/ha, scale 0 to 100, 0 no effect, 100 complete control
# In short: as §1
# [13] = test system: wheat; assay: Test A postemergence; type: in vivo, Triticum aestivum; conditions: 0 to 100 scale where 0 is no effect and 100 is complete control
# In short: as §2
# [14] = test system: barnyardgrass; assay: Test A preemergence; type: in vivo, Echinochloa crus-galli; conditions: for Plant response rating, Barnyardgrass: 125 g ai/ha, 0 to 100 scale where 0 is no effect and 100 is complete control; for Barnyardgrass plant response rating: 500 g ai/ha, 0 to 100 scale, 0 no effect, 100 complete control, approx. 10 days
# In short: as §2
# [15] = test system: large (Lg) crabgrass; assay: Test A preemergence; type: in vivo, Digitaria sanguinalis; conditions: for Plant response rating, Crabgrass, Large: 125 g ai/ha, 0 to 100 scale where 0 is no effect and 100 is complete control; for Crabgrass, Large plant response rating: 500 g ai/ha, 0 to 100 scale, 0 no effect, 100 complete control, approx. 10 days
# In short: as §2
# [16] = test system: Italian ryegrass; assay: Test C preemergence; type: in vivo, Lolium multiflorum; conditions: for Ryegrass, Italian plant response rating: preemergence; for Plant response rating, Ryegrass, Italian: Preemergence, 31 g ai/ha, scale 0 to 100, 0 no effect, 100 complete control
# In short: as §1
# [17] = 62 g ai/ha, scale 0 (no effect) to 100 (complete control)
# [18] = 125 g ai/ha, scale 0 (no effect) to 100 (complete control)
# [19] = 250 g ai/ha, scale 0 (no effect) to 100 (complete control)
# [20] = 31 g ai/ha, scale 0 to 100 (0 no effect, 100 complete control), 13 to 15 days
# [21] = 62 g ai/ha, scale 0 to 100 (0 no effect, 100 complete control)
# [22] = 125 g ai/ha, 0 to 100 scale where 0 is no effect and 100 is complete control
# [23] = 16 g ai/ha, scale 0 to 100 (0 no effect, 100 complete control)
# [24] = 16 g ai/ha, postemergence, visual rating, scale 0 to 100 (0 no effect, 100 complete control), 13 to 15 days
structure (smiles),measurement,setting,value
N#Cc1cccc(Oc2ncc(F)cn2)c1-n1cc(Cl)cn1 [Compound 73],"Plant response rating (0 to 100), Oat, Wild",[1]; 125 g ai/ha,10
same,"Plant response rating (0 to 100), Oat, Wild",[1]; 250 g ai/ha,15
same,"Plant response rating, Oat, Wild","[1]; 31 g ai/ha, 13 to 15 days",5
same,"Plant response rating, Oat, Wild",[1]; 62 g ai/ha,5
same,"Crabgrass, Large plant response rating",[2]; [17],100
same,"Crabgrass, Large plant response rating",[2]; [18],100
same,"Crabgrass, Large plant response rating",[2]; [19],100
same,"Plant response rating, Crabgrass, Large",[2],100
same,"Plant response rating, Corn",[3],20
same,Corn plant response rating,[3],70
same,Blackgrass plant response rating,[4]; [17],80
same,Blackgrass plant response rating,[4]; [18],90
same,Blackgrass plant response rating,[4]; [19],90
same,"Plant response rating, Blackgrass",[4],0
same,"Plant response rating, Morningglory",[5],90
same,Morningglory plant response rating,[5],100
same,"Plant response rating, Morningglory",[6]; 125 g ai/ha,90
same,"Plant response rating, Morningglory",[6]; 500 g ai/ha,100
same,"Plant response rating, Barnyardgrass",[7],0
same,"Plant response rating (0 to 100), Blackgrass","[8]; 125 g ai/ha, postemergence",5
same,"Plant response rating (0 to 100), Blackgrass","[8]; 250 g ai/ha, postemergence",25
same,"Plant response rating, Blackgrass",[8]; [20],0
same,"Plant response rating, Blackgrass",[8]; [21],0
same,"Plant response rating (0 to 100), Johnsongrass","[9]; 125 g ai/ha, postemergence",5
same,"Plant response rating (0 to 100), Johnsongrass","[9]; 250 g ai/ha, postemergence",25
same,"Plant response rating, Johnsongrass",[9]; [20],0
same,"Plant response rating, Johnsongrass",[9]; [21],5
same,"Plant response rating, Ducksalad",[10],70
same,"Plant response rating, Crabgrass, Large",[11]; [22],90
same,"Plant response rating, Crabgrass, Large","[11]; 500 g ai/ha, 0 to 100 scale, 0 no effect, 100 complete control",100
same,Wheat plant response rating,[12]; [17],0
same,Wheat plant response rating,[12]; [18],5
same,Wheat plant response rating,[12]; [19],85
same,"Plant response rating, Wheat",[12],0
same,"Plant response rating, Wheat",[13]; 125 g ai/ha,20
same,"Plant response rating, Wheat",[13]; 500 g ai/ha,50
same,"Plant response rating, Barnyardgrass",[14],90
same,Barnyardgrass plant response rating,[14],100
same,"Plant response rating, Crabgrass, Large",[15],100
same,"Crabgrass, Large plant response rating",[15],100
same,"Ryegrass, Italian plant response rating",[16]; [17],5
same,"Ryegrass, Italian plant response rating",[16]; [18],55
same,"Ryegrass, Italian plant response rating",[16]; [19],70
same,"Plant response rating, Ryegrass, Italian",[16],0
CCOc1cnn(-c2c(C#N)cccc2Oc2ncc(Cl)cn2)c1 [Compound 92],"Plant response rating (0 to 100), Oat, Wild",[1]; 125 g ai/ha,15
same,"Plant response rating, Oat, Wild","[1]; 31 g ai/ha, 13 to 15 days",5
same,"Plant response rating, Oat, Wild",[1]; 62 g ai/ha,10
same,"Crabgrass, Large plant response rating",[2]; [23],90
same,"Crabgrass, Large plant response rating",[2]; [17],100
same,"Crabgrass, Large plant response rating",[2]; [18],100
same,"Plant response rating, Crabgrass, Large",[2],100
same,"Plant response rating, Corn",[3],10
same,Corn plant response rating,[3],40
same,Blackgrass plant response rating,[4]; [23],0
same,Blackgrass plant response rating,[4]; [17],70
same,Blackgrass plant response rating,[4]; [18],90
same,"Plant response rating, Blackgrass",[4],5
same,"Plant response rating, Morningglory",[5],90
same,Morningglory plant response rating,[5],100
same,"Plant response rating, Morningglory",[6]; 125 g ai/ha,100
same,"Plant response rating, Morningglory",[6]; 500 g ai/ha,100
same,"Plant response rating, Barnyardgrass",[7],20
same,Blackgrass plant response rating,[8]; [24],0
same,"Plant response rating (0 to 100), Blackgrass","[8]; 125 g ai/ha, postemergence",35
same,"Plant response rating, Blackgrass",[8]; [20],0
same,"Plant response rating, Blackgrass",[8]; [21],10
same,Johnsongrass plant response rating,[9]; [24],0
same,"Plant response rating (0 to 100), Johnsongrass","[9]; 125 g ai/ha, postemergence",5
same,"Plant response rating, Johnsongrass",[9]; [20],0
same,"Plant response rating, Johnsongrass",[9]; [21],5
same,"Plant response rating, Ducksalad",[10],95
same,"Plant response rating, Crabgrass, Large",[11]; [22],80
same,"Plant response rating, Crabgrass, Large","[11]; 500 g ai/ha, 0 to 100 scale where 0 is no effect and 100 is complete control",90
same,Wheat plant response rating,[12]; [23],0
same,Wheat plant response rating,[12]; [17],30
same,Wheat plant response rating,[12]; [18],80
same,"Plant response rating, Wheat",[12],0
same,"Plant response rating, Wheat",[13]; 125 g ai/ha,60
same,"Plant response rating, Wheat",[13]; 500 g ai/ha,70
same,"Plant response rating, Barnyardgrass",[14],60
same,Barnyardgrass plant response rating,[14],100
same,"Plant response rating, Crabgrass, Large",[15],100
same,"Crabgrass, Large plant response rating",[15],100
same,"Ryegrass, Italian plant response rating",[16]; [23],0
same,"Ryegrass, Italian plant response rating",[16]; [17],50
same,"Ryegrass, Italian plant response rating",[16]; [18],85
same,"Plant response rating, Ryegrass, Italian",[16],10
